Experimental data as given in publication PMC4947679, “Quantitative In Vitro and In Vivo Evaluation of Intestinal and Blood-Brain Barrier Transport Kinetics of the Plant N-Alkylamide Pellitorine” (BioMed Research International, 2016).
Read-outs that look alike come from different tables or passages of the source.

Key:
[1] = Blood-to-brain transport, multiple time regression (MTR) analysis in mice
Description: Seven-to-ten-week-old female, Institute for Cancer Research, Caesarean Derived-1 (ICR-CD-1) mice (Harlan Laboratories, Venray, Netherlands) weighing 29–32 g were used for the BBB transport experiments. The experiments were performed according to the Ethical Committee principles of laboratory animal welfare as approved by Ghent University (Faculty of Veterinary Medicine, number EC2014/128).
An in vivo multiple time regression (MTR) analysis was performed in order to determine whether pellitorine could enter the brain. A dose solution of 1.8 mg/mL pure pellitorine dissolved in 6.9% EtOH, 2.5% dimethylacetamide, and 0.5% tween 80 (all w/w) diluted in lactated Ringer's solution containing 1% BSA was prepared. After anesthetizing the mice intraperitoneally with a 40% (w/V) urethane solution (3 g/kg), the jugular internalis vein and carotid artery were isolated and 20 μL of the pellitorine dose solution was injected into the jugular vein. After 1, 3, 5, 10, 12.5, and 15 min after injection (with start and end in duplicate), blood was collected from the carotid artery. Immediately thereafter, the mice were decapitated and the brains were isolated. […] The serum concentrations of pellitorine were plotted against the time (expressed in min). The curve was fitted using a first-order kinetic, two-compartment model: C(t) = C 1 × e ^−α×t + C 2 × e ^−β×t, in which C is the concentration of pellitorine in serum at time t, α and β are hybrid constants, dependent on the rate constants k e (elimination rate constant), k 1,2 (rate constant between central and peripheral tissue compartment), k 2,1 (rate constant between peripheral tissue and central compartment), C 1 is the concentration obtained after extrapolation of the distribution phase α to the y-axis, and C 2 is the concentration obtained after extrapolation of the elimination phase β to the y-axis. The ratio of the pellitorine brain and serum concentration (μL/g) was plotted versus the exposure time (θ), which is a derived time variable of the Gjedde-Patlak plot, to determine the BBB influx kinetics of pellitorine.
The exposure time is computed as θ = ∫0 ^T((C s(t) · dt)/C s(T)) and is defined as the integral of the concentration of pellitorine in serum from start (t = 0 min) to time T, divided by the concentration of pellitorine in serum at time T. The integral of the concentration of pellitorine in serum from zero to time T is the area under the curve until time T.
The brain uptake of pellitorine was fitted using a biphasic model, as elaborated by Wong et al.: (4) CbrainT/CsTK·θ+Vg·1−e^−θ·K1−K/Vg+V0≅K=0Vg·1−e^−θ·K1/Vg+V0 in which C brain(T) is the concentration of pellitorine in the brain at time T (ng/g), C s(T) the concentration of pellitorine in serum at time T (ng/μL), K the net clearance (μL/(g·min)), V g the tissue brain distribution volume (μL/g), K 1 the unidirectional clearance from pellitorine from blood to brain (i.e., the unidirectional brain transfer coefficient, also referred to as influx rate) (μL/(g·min)), and V 0 the vascular brain distribution volume (μL/g).

[2] = parameters: method as in PMID 25481393; conditions: cited from earlier work
fatty acid uptake = test system: fatty acid uptake; parameters: method as in PMID 25422952; conditions: in vitro; cited from earlier work
[3] = female, ICR-CD-1, mouse, serum, iv, 36 μg/mouse
[4] = mice, intravenous, two-compartment model

Kp ([1]; female, ICR-CD-1, mouse, brain (relative to serum), iv, 36 μg/mouse): 0.792
half-life [1, 3]: 4.48 min
k el [1, 3]: 0.0025 s⁻¹
unidirectional influx rate K 1 ([1]; mice, injection into jugular vein, MTR): 153 µL/g/min
tissue brain distribution volume (V g) ([1]; mice, intravenous, biphasic model): 792 µL/g
C 1 (serum, extrapolation of distribution phase) [1, 4]: 7.02 µg/mL
C 2 (serum, extrapolation of elimination phase) [1, 4]: 0.44 µg/mL
distribution rate constant α ([1]; mouse serum, intravenous, two-compartment model): 1.56 min⁻¹
SMILES: CCCCC/C=C/C=C/C(=O)NCC(C)C [pellitorine, deca-2E,4E-dienoic acid isobutylamide]
toxicity during the experiment ([1]; mouse, in vivo, iv): no toxicity was observed
aqueous permeability coefficient K p,aq ([2]; pellitorine from crude plant extract): 2.3 10^−4 cm/h
aqueous permeability coefficient K p,aq ([2]; purified pellitorine): 1.1 10^−4 cm/h
fatty acid uptake (fatty acid uptake): reduces fatty acid uptake
